# Assay results reported in patent US8889708B2 (Boehringer Ingelheim International GmbH, priority 2013, dated 2014).
# How the values were obtained:
# [1] = target: recombinant human Cathepsin K (Homo sapiens (Human), UniProt P43235); test: Inhibition of Human Cathepsin K; format: biochemical; settings: substrate Z-Gly-Pro-Arg-AMC, 60 min room temperature
# From the text: Inhibition of Human Cathepsin K Materials: Microtiterplates (Optiplate-384 F were purchased from PerkinElmer (Prod. No. 6007270). The substrate Z-Gly-Pro-Arg-AMC was from Biomol (Prod.-No. P-142). L-Cysteine (Prod. No. 168149) was from Sigma. Sodium actetate was from Merck (Prod.-No. 6268.0250), EDTA was from Fluka (Prod.-No. 03680). The inhibitor E-64 was purchased from Sigma (Prod.-No. E3132). The recombinant human Cathepsin K proenzyme was purchased from Biomol (Prod. No. SE-367). All other materials were of highest grade commercially available.
# The following buffers were used: Activation buffer: 32.5 mM sodium acetate, adjusted to pH 3.5 with HCl; Assay buffer: 150 mM sodium acetate, 4 mM EDTA, 20 mM L-Cysteine, adjusted to pH 5.5 with HCl,
# To activate the proenzyme, 5 μl procathepsin K were mixed with 1 ul activation buffer, and incubated at room temperature for 30 min.
# 5 μL test compound (final concentration 0.1 nM to 100 μM) in aqua bidest (containing 4% DMSO, final DMSO concentration 1%) were mixed with 10 uL of Cathepsin K in assay buffer (final concentration 2 ng/μL) and incubated for 10 min. Then 5 μL of substrate in assay buffer (final concentration 12.5 μM) were added. The plates were then incubated at room temperature for 60 min. Then, the reaction was stopped by adding 10 μL of E64 in assay buffer (final concentration 1 μM). The fluorescence in the wells was determined using a Molecular Devices SpectraMax M5 Fluorescence Reader (Ex 360 nm, Em 460 nm).
# Each assay microtiter plate contains wells with vehicle controls (1% DMSO in bidest) as reference for non-inhibited enzyme activity (100% Ctl; high values) and wells with inhibitor (E64 in bidest+1% DMSO, final concentration 1 μM) as controls for background fluorescence (0% Ctl; low values). The analysis of the data was performed by calculating the percentage of fluorescence in the presence of test compound in comparison to the fluorescence of the vehicle control after subtracting the background fluorescence: (RFU(sample)−RFU(background))*100/(RFU(control)−RFU(background))
# Data from these calculations were used to generate IC50 values for inhibition of Cathepsin K, respectively.
# [2] = tested on: Neutrophil elastase activity in U937 cells; test: Neutrophil elastase activity in U937 cytosolic lysate after incubation with test compound; format: cell-based; settings: Homo sapiens, U-937, U937 cells incubated 48 hours with compound, read-out: Reduction of NE-activity in U937 cells IC50
# Protocol: Determination of Neutrophil Elastase Activity in U937 Cytosolic Lysate Preparation after Incubation with Test Compound
# Optiplate 384F were purchased from PerkinElmer (Prod. No. #6007270). 24well Nunclon cell culture plates (No. 142475) and 96well plates (No. 267245) were from Nunc. Dimethylsulfoxid (DMSO) was from Sigma (Prod. No. D8418). Nonidet-P40 (NP40) was from USBiological (Prod. No. N3500)
# Substrate, specific for Neutrophil elastase, was from Bachem (MeOSuc-Ala-Ala-Pro-Val-AMC; Prod. No. I-1270).
# Human neutrophil elastase was from Calbiochem (Prod. No. 324681)
# Tris-buffer (100 mM Tris; 1M NaCL; pH 7.5)
# Tris-buffer+HSA 0.1%; Human Serum Albumin from Calbiochem (Cat#. 126658)
# Serine-protease buffer (20 mM Tris; 100 mM NaCL; pH 7.5)+0.1% HSA
# Serine protease lysis buffer: 20 mM Tris-HCL; 100 mM NaCl pH 7.5; +0.2% Nonidet-P40;
# PBS: phosphate buffered saline, without Ca and Mg, from Gibco
# U937 from ECACC (Cat. No. 85011440) cultured in suspension at 37° C. and 5% CO2.
# Cell density: 0.2-1 Mio. Cells/ml.
# Medium: RPMI1640 GlutaMAX (No. 61870) with 10% FCS from Gibco
# Cell Seeding and Treatment:
# Compounds in 100% DMSO were diluted in Medium (—FCS) with 10% DMSO and further diluted according to the experiment planned.
# 20 μl of the compound solution was transferred in the respective wells of the 24 well plate and diluted with 2 ml cell suspension/well containing […] (final concentration of DMSO=0.1%). Compound dilution factor=100
# Compounds (up to 7 concentrations) were tested in triplicates with 3 wells for the DMSO 0.1% control, incubatet for 48 hours without medium change at 37° C., 5% CO2 and 95% relative humidity.
# Cell Harvesting and Cell Lysate:
# Transfer the cell suspension in 2.2 ml Eppendorf cups. Separate cells from medium by centrifugation (400×g; 5 min; RT); discard the supernatant. Resuspend in 1 ml PBS; centrifugation (400×g; 5 min; RT); wash cells twice with PBS. Add 100 μl Serin lysis buffer (ice cold) to the cell pellet; resuspend the pellet and store on ice for 15 minutes. Remove debris by centrifugation at 15000×g for 10 min at 4° C. Transfer 80-100 μl lysate supernatant in 96well plate and store immediately at −80° C.
# Neutrophil Elastase Activity Assay:
# Frozen lysates were thawn at 37° C. for 10 minutes and stored on ice. Protein content was determined with Bradford protein assay. Lysates were diluted to 0.2-0.5 mg/ml protein in serine protease buffer+HSA.
# Standard: NE ([…] stocksolution in Tris-buffer; stored at −80° C.) was diluted in Tris-buffer+HSA to 750 ng/ml, and further serially diluted 1:2 for the standard curve.
# Buffer, blank, standard and lysate samples were transferred into 384 well plate
# Blank: 5 μl Tris-buffer+10 μl Tris-buffer+HSA+5 μl Substrate
# Standard: 5 μl Tris-buffer+10 μl NE (diff.conc.)+5 μl Substrate
# Lysate: 5 μl Tris-buffer+10 μl Lysat+5 μl Substrate
# The increase in fluorescence (Ex360 nm/Em 460 nm) is determined over 30 minutes with a Molecular Device Spectramax M5 Fluorescence Reader. Kinetic Reduction (Vmax units/sec); 4 vmax points. The amount of neutrophil elastase (ng/ml) is calculated using the standard curve and the Spectramax software. The result is interpolated to ng/mg lysate protein using excel formula functions. Percent inhibition in the compound-treated lysate samples is calculated relative to the DMSO-treated control-sample (100−(compound-sample*100)/control-sample)
# IC50 is calculated using Graphpad Prism; nonlinear fitting (log(inhibitor) vs. response—Variable slope).
# recombinant human Cathepsin K, sequence (P43235 115-329): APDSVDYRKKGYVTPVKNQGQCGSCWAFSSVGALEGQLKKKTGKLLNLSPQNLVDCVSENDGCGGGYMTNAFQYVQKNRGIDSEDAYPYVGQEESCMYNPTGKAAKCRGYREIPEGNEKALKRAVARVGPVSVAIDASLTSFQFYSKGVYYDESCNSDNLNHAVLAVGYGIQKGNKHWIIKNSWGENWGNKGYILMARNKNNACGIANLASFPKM
Compound,IC50 [1] [nM],IC50 [2] [nM]
CN1C(=O)Cc2ccc(-c3ccc(C[C@@H](C#N)NC(=O)C45CCC(CC4)CN5)cc3)cc21 [Example 2],6700,27
N#C[C@H](Cc1ccc(-c2ccc3c(c2)CCNC3=O)cc1F)NC(=O)C12CCC(CC1)CN2 [Example 22],2300,7
N#C[C@H](Cc1ccc(-c2ccc3c(c2)NC(=O)C3)cc1F)NC(=O)C12CCC(CC1)CN2 [Example 23],600,33
COCCN1C(=O)Cc2ccc(-c3ccc(C[C@@H](C#N)NC(=O)C45CCC(CC4)CN5)c(F)c3)cc21 [Example 26],1100,13

# Further molecules by falling IC50 [1], results first:
IC50 [1] [nM],IC50 [2] [nM],Compound
6300,86,CN1Cc2cc(-c3ccc(C[C@@H](C#N)NC(=O)C45CCC(CC4)CN5)cc3)ccc2C1=O [Example 4]
2200,13,CN1C(=O)Cc2ccc(-c3ccc(C[C@@H](C#N)NC(=O)C45CCC(CC4)CN5)c(F)c3)cc21 [Example 28]
1700,7,CC1(C)OC(=O)c2ccc(-c3ccc(C[C@@H](C#N)NC(=O)C45CCC(CC4)CN5)c(F)c3)cc21 [Example 27]
800,48,"CS(=O)(=O)c1ccc(-c2ccc(C[C@@H](C#N)NC(=O)C34CCC(CC3)CN4)c(F)c2)cc1 [Example 21, N-[(1S)-1-cyano-2-[2-fluoro-4-(4-methanesulfonylphenyl)phenyl]ethyl]-2-azabicyclo[2.2.2]octane-1-carboxamide]"
800,73,N#C[C@H](Cc1ccc(-c2csc(C(N)=O)c2)cc1F)NC(=O)C12CCC(CC1)CN2 [Example 31]
